# According to ChEMBL document CHEMBL4138146, “A Schmidt rearrangement-mediated synthesis of novel tetrahydro-benzo[1,4]diazepin-5-ones as potential anticancer and antiprotozoal agents” (Eur J Med Chem, 2017):
# Legend:
# Type in all cases: functional
# DU-145 = assay: Growth inhibition of human DU145 cells assessed as cell growth at 10^-8 M incubated for 48 hrs by sulforhodamine B assay relative to control; details: DU-145, 48 h, read-out: Activity
# COLO 205 = assay: Growth inhibition of human COLO205 cells assessed as cell growth at 10^-5 M incubated for 48 hrs by sulforhodamine B assay relative to control; details: COLO 205, 48 h, read-out: Activity
# SNB-75 = assay: Growth inhibition of human SNB75 cells assessed as cell growth at 10^-7 M incubated for 48 hrs by sulforhodamine B assay relative to control; details: SNB-75, 48 h, read-out: Activity
# U-251 [1] = assay: Growth inhibition of human U251 cells assessed as cell growth at 10^-5 M incubated for 48 hrs by sulforhodamine B assay relative to control; details: U-251, 48 h, read-out: Activity
# U-251 [2] = assay: Growth inhibition of human U251 cells assessed as cell growth at 10^-6 M incubated for 48 hrs by sulforhodamine B assay relative to control; details: U-251, 48 h, read-out: Activity
# SNB-19 = assay: Growth inhibition of human SNB19 cells assessed as cell growth at 10^-4 M incubated for 48 hrs by sulforhodamine B assay relative to control; details: SNB-19, 48 h, read-out: Activity
# RXF 393 = assay: Growth inhibition of human RXF393 cells assessed as cell growth at 10^-7 M incubated for 48 hrs by sulforhodamine B assay relative to control; details: RXF 393, 48 h, read-out: Activity
# M14 = assay: Growth inhibition of human M14 cells assessed as cell growth at 10^-7 M incubated for 48 hrs by sulforhodamine B assay relative to control; details: M14, 48 h, read-out: Activity
# SW-620 = assay: Growth inhibition of human SW620 cells assessed as cell growth at 10^-6 M incubated for 48 hrs by sulforhodamine B assay relative to control; details: SW-620, 48 h, read-out: Activity
# OVCAR-8 [3] = assay: Growth inhibition of human OVCAR8 cells assessed as cell growth at 10^-4 M incubated for 48 hrs by sulforhodamine B assay relative to control; details: OVCAR-8, 48 h, read-out: Activity
# MDA-MB-435 = assay: Growth inhibition of human MDA-MB-435 cells assessed as cell growth at 10^-6 M incubated for 48 hrs by sulforhodamine B assay relative to control; details: MDA-MB-435, 48 h, read-out: Activity
# HCT-15 [4] = assay: Growth inhibition of human HCT15 cells assessed as cell growth at 10^-6 M incubated for 48 hrs by sulforhodamine B assay relative to control; details: HCT-15, 48 h, read-out: Activity
# OVCAR-8 [5] = assay: Growth inhibition of human OVCAR8 cells assessed as cell growth at 10^-6 M incubated for 48 hrs by sulforhodamine B assay relative to control; details: OVCAR-8, 48 h, read-out: Activity
# NCI-H522 = assay: Growth inhibition of human NCI-H522 cells assessed as cell growth at 10^-4 M incubated for 48 hrs by sulforhodamine B assay relative to control; details: NCI-H522, 48 h, read-out: Activity
# SF-268 = assay: Growth inhibition of human SF268 cells assessed as cell growth at 10^-7 M incubated for 48 hrs by sulforhodamine B assay relative to control; details: SF-268, 48 h, read-out: Activity
# SR = assay: Growth inhibition of human SR cells assessed as cell growth at 10^-7 M incubated for 48 hrs by sulforhodamine B assay relative to control; details: read-out: Activity
# SF-539 = assay: Growth inhibition of human SF539 cells assessed as cell growth at 10^-8 M incubated for 48 hrs by sulforhodamine B assay relative to control; details: SF-539, 48 h, read-out: Activity
# TK-10 = assay: Growth inhibition of human TK10 cells assessed as cell growth at 10^-6 M incubated for 48 hrs by sulforhodamine B assay relative to control; details: TK-10, 48 h, read-out: Activity
# HCT-15 [6] = assay: Growth inhibition of human HCT15 cells assessed as cell growth at 10^-7 M incubated for 48 hrs by sulforhodamine B assay relative to control; details: HCT-15, 48 h, read-out: Activity
# SK-MEL-2 [7] = assay: Growth inhibition of human SK-MEL-2 cells assessed as cell growth at 10^-7 M incubated for 48 hrs by sulforhodamine B assay relative to control; details: SK-MEL-2, 48 h, read-out: Activity
# SK-MEL-2 [8] = assay: Growth inhibition of human SK-MEL-2 cells assessed as cell growth at 10^-6 M incubated for 48 hrs by sulforhodamine B assay relative to control; details: SK-MEL-2, 48 h, read-out: Activity
# K562 = assay: Growth inhibition of human K562 cells assessed as cell growth at 10^-5 M incubated for 48 hrs by sulforhodamine B assay relative to control; details: K562, 48 h, read-out: Activity
# IGROV-1 = assay: Growth inhibition of human IGROV1 cells assessed as cell growth at 10^-6 M incubated for 48 hrs by sulforhodamine B assay relative to control; details: IGROV-1, 48 h, read-out: Activity
# SK-MEL-2 [9] = assay: Growth inhibition of human SK-MEL-2 cells assessed as cell growth at 10^-4 M incubated for 48 hrs by sulforhodamine B assay relative to control; details: SK-MEL-2, 48 h, read-out: Activity
# HOP-92 = assay: Growth inhibition of human HOP92 cells assessed as cell growth at 10^-7 M incubated for 48 hrs by sulforhodamine B assay relative to control; details: HOP-92, 48 h, read-out: Activity
# HCT-15 [10] = assay: Growth inhibition of human HCT15 cells assessed as cell growth at 10^-4 M incubated for 48 hrs by sulforhodamine B assay relative to control; details: HCT-15, 48 h, read-out: Activity
# SK-MEL-28 = assay: Growth inhibition of human SK-MEL-28 cells assessed as cell growth at 10^-4 M incubated for 48 hrs by sulforhodamine B assay relative to control; details: SK-MEL-28, 48 h, read-out: Activity
# SN12C [11] = assay: Growth inhibition of human SN12C cells assessed as cell growth at 10^-8 M incubated for 48 hrs by sulforhodamine B assay relative to control; details: read-out: Activity
# BT-549 = assay: Growth inhibition of human BT549 cells assessed as cell growth at 10^-7 M incubated for 48 hrs by sulforhodamine B assay relative to control; details: BT-549, 48 h, read-out: Activity
# UO-31 = assay: Growth inhibition of human UO31 cells assessed as cell growth at 10^-8 M incubated for 48 hrs by sulforhodamine B assay relative to control; details: UO-31, 48 h, read-out: Activity
# KM12 = assay: Growth inhibition of human KM12 cells assessed as cell growth at 10^-7 M incubated for 48 hrs by sulforhodamine B assay relative to control; details: KM12, 48 h, read-out: Activity
# SN12C [12] = assay: Growth inhibition of human SN12C cells assessed as cell growth at 10^-6 M incubated for 48 hrs by sulforhodamine B assay relative to control; details: read-out: Activity
# PC-3 = assay: Growth inhibition of human PC3 cells assessed as cell growth at 10^-5 M incubated for 48 hrs by sulforhodamine B assay relative to control; details: PC-3, 48 h, read-out: Activity
# MDA-MB-468 = assay: Growth inhibition of human MDA-MB-468 cells assessed as cell growth at 10^-8 M incubated for 48 hrs by sulforhodamine B assay relative to control; details: MDA-MB-468, 48 h, read-out: Activity
smiles,measurement,setting,value
CCCCOc1nc2ccccc2cc1C1CNC(=O)c2ccccc2N1 (centres undefined),growth at 0.01 µM,DU-145,101%
same,growth at 10 µM,COLO 205,-43%
same,growth at 0.1 µM,SNB-75,89%
same,growth at 10 µM,U-251 [1],12%
same,growth at 1 µM,U-251 [2],85%
same,growth at 100 µM,SNB-19,-5%
same,growth at 0.1 µM,RXF 393,86%
same,growth at 0.1 µM,M14,91%
same,growth at 1 µM,SW-620,66%
same,growth at 100 µM,OVCAR-8 [3],-45%
same,growth at 1 µM,MDA-MB-435,8%
same,growth at 1 µM,HCT-15 [4],69%
same,growth at 1 µM,OVCAR-8 [5],94%
same,growth at 100 µM,NCI-H522,-35%
same,growth at 0.1 µM,SF-268,92%
same,growth at 0.1 µM,SR,64%
same,growth at 0.01 µM,SF-539,89%
same,growth at 1 µM,TK-10,92%
same,growth at 0.1 µM,HCT-15 [6],98%
same,growth at 0.1 µM,SK-MEL-2 [7],99%
same,growth at 1 µM,SK-MEL-2 [8],86%
same,growth at 10 µM,K562,7%
same,growth at 1 µM,IGROV-1,86%
same,growth at 100 µM,SK-MEL-2 [9],-15%
same,growth at 0.1 µM,HOP-92,80%
same,growth at 100 µM,HCT-15 [10],-74%
same,growth at 100 µM,SK-MEL-28,-57%
same,growth at 0.01 µM,SN12C [11],97%
same,growth at 0.1 µM,BT-549,104%
same,growth at 0.01 µM,UO-31,80%
same,growth at 0.1 µM,KM12,98%
same,growth at 1 µM,SN12C [12],84%
same,growth at 10 µM,PC-3,9%
same,growth at 0.01 µM,MDA-MB-468,78%
